Results published in patent US12275685B2, “Oligo-benzamide analogs and their use in cancer treatment” (Board of Regents, The University of Texas System, priority 2018, dated 2025).

Legend:
[1] = tested on: tumor growth; assay: Animal studies with TK41; format: in vivo
Experimental: FIGS. 4A-4C show the effect of TK41 on estrogen receptor-positive (ER+ve) tumor growth. ZR75 (ER+ve; n=18) xenografts were established in nude mice and treated with either vehicle (circle markers) or 10 mg/kg/day TK41 (square markers) administered as an oral gavage in Captisol®. Comparison of mice body weights is shown in bar graphs (FIG. 4C). *p<0.05; **** p<0.001.
FIGS. 5A-5C show the effect of TK41 on triple negative breast cancer xenograft tumors. MDA-MB-231 (TNBC; n=10) xenografts were established in nude mice and treated with either vehicle (circle markers) or 10 mg/kg/day TK41 (square markers) administered as an oral gavage in Captisol®. Comparison of mice body weights is shown in bar graphs (FIG. 5A). Photographs of individual tumors at necropsy supports the effect of TK41 on TNBC. *p<0.05; **** p<0.001.
TNBC is difficult to be treated and currently there are no good drugs available in the market.

[2] = tested on: D2A1 xenografts; assay: D2A1 syngeneic tumor model; format: in vivo, mice; conditions: 10 mg/kg daily
Experimental: FIGS. 35A-P: ERX-41 is potent against TNBC in vivo. (FIG. 35A) Following establishment of subcutaneous MDA-MB-231 xenograft tumors (200 mm^3), 10 mg/kg single dose ERX-41 was administered either by oral or intraperitoneal route. The tumor was harvested 0, 0, 5, 1, 5, 3, 6 and 24 h after drug administration and the drug levels assayed by LC-MS/MS and graphed. (FIGS. 35B-E) Following establishment of MDA-MB-231 xenografts in mammary fat pad in vivo (100 mm^3 size), daily administration of 10 mg/kg ERX-41 or vehicle control (N=8 each group) was initiated. Tumor volumes were measured using digital calipers and graphed (FIG. 35B). Tumor weights (FIG. 35C), body weights (FIG. 35D) and extirpated tumors (FIG. 35E) at end of study are also shown. (FIGS. 35F-H) Following establishment of D2A1 syngeneic xenografts in mammary fat pad in vivo (100 mm^3 size), daily administration of 10 mg/kg ERX-41 or vehicle control (N=8 each group) was initiated. Tumor volumes were measured using digital calipers and graphed (FIG. 35F) along with tumor weights (FIG. 35G) and body weights (FIG. 35H). (FIGS. 35I-P) Effect of ERX-41 on the growth (FIG. 351, FIG. 35K, FIG. 35M, FIG. 35O) and tumor weights (FIG. 35J, FIG. 35L, FIG. 35N, FIG. 35P) of four distinct TNBC PDXs compared to vehicle. *p<0.05. **p<0.01; ***p<0.001. […]

For `CC(C)COc1cc(C(=O)Nc2ccc(C(=O)N[C@H]3CC[C@H](C)CC3)cc2OCC(C)C)ccc1NC(=O)c1ccc([N+](=O)[O-])c(OCCO)c1` [TK41], the “side effects or toxicity” value ([1]; animal studies) was “no apparent side effects or toxicity”, the tumor growth inhibition ([1]; animal studies) was “outstanding tumor growth inhibition” and the oral availability ([1]; mouse, in vivo, po) was “orally available”. For the same molecule, the “growth of D2A1 xenografts” value [2] was “significantly reduce the growth”.
